For 1 compound, inhibition results are on record in patent US20110082130A1 (LIGAND PHARMACEUTICALS, INC., priority 2006, published 2011).

This assay concerns the target T1, chimeric human H3 receptor (Homo sapiens, UniProt Q9Y5N1).
T1 construct: made in house; host or cells: Sf9 insect cells (baculovirus); P2 membrane preparation
Nature of the assay: Chimeric human H3 receptor screening GTP binding assay (inhibition of histamine-stimulated GTP-gamma35S binding, Example 8). The class given is biochemical. To be noted: 4 μM of the compound, 1 μM histamine, "†" in Ki of Table II, read-out: percent inhibition of the signal obtained with 1 μM histamine. In outline: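 Sf9 membranes co-expressing chimeric human H3 receptor and heterotrimeric G-protein, 35 μg per reaction, incubated 60 min at room temperature with 4 μM compound, 1 μM histamine, 10 μM GDP and […] GTP-gamma35S at pH 7.4. Filter-bound radioactivity counted. Result expressed as percent inhibition of the histamine signal after subtracting non-specific binding (10 μM GTP-gammaS).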
In general terms: GTPγS resists hydrolysis and so accumulates on activated G proteins.

Molecules are shown by their SMILES.

T1 sequence (Q9Y5N1 with tags, fused parts or gaps): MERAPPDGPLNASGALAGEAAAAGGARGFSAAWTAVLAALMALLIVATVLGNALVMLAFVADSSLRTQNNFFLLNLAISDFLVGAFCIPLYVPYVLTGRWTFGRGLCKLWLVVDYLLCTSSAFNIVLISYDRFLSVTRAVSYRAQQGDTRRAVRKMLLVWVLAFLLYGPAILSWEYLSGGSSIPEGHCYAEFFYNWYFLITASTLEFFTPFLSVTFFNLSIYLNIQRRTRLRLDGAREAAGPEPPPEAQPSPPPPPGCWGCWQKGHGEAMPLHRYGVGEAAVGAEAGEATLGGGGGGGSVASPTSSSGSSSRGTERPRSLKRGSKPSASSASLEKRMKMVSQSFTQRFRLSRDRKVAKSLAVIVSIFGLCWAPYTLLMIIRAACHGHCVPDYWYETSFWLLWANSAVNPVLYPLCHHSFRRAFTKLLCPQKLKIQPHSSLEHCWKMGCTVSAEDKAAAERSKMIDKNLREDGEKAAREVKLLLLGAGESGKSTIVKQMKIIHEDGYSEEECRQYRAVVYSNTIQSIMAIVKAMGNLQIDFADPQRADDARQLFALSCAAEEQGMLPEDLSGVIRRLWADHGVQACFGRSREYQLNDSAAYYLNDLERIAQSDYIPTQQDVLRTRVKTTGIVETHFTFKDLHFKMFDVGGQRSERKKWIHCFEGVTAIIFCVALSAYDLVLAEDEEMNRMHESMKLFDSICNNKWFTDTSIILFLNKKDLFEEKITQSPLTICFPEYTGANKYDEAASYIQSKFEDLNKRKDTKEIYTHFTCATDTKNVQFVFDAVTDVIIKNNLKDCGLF

Consider `CC(C)N1CCN(C(=O)CN2CCc3cc(-c4ccc5ccccc5c4)ccc3C2)CC1` [Compound 419, 2-[2-(4-isopropylpiperazin-1-yl)-2-oxoethyl]-6-(2-naphthyl)-1,2,3,4-tetrahydroisoquinoline], for which the inhibition at 4 µM is at least 90%.

Broadly, the inhibition is the relative decrease from the control value, in per cent.
